# Literature values, collected in patent US20220015356A1, “AQUEOUS SOLUTIONS OF POORLY SOLUBLE PESTICIDES USING POLYALKYOXYLATED ALCOHOLS” (priority 2018, published 2022).
# Conditions: at 20° C.
smiles,measurement,value
COC(=O)N(OC)c1ccccc1COc1ccn(-c2ccc(Cl)cc2)n1 [pyraclostrobin],water solubility,< 1.9 µg/mL
